From article PMC6150381, “Design, Synthesis, and Biological Evaluation of N,N-Disubstituted-4-arylthiazole-2-methylamine Derivatives as Cholesteryl Ester Transfer Inhibitors” (Molecules : A Journal of Synthetic Chemistry and Natural …, 2017) come the findings set out here.

One series concerns the target T1, recombinant CETP (Homo sapiens, UniProt P11597).
T1 construct: purchased Roar, New York, NY, USA RB-RPAK
T1 sequence (P11597 18-493): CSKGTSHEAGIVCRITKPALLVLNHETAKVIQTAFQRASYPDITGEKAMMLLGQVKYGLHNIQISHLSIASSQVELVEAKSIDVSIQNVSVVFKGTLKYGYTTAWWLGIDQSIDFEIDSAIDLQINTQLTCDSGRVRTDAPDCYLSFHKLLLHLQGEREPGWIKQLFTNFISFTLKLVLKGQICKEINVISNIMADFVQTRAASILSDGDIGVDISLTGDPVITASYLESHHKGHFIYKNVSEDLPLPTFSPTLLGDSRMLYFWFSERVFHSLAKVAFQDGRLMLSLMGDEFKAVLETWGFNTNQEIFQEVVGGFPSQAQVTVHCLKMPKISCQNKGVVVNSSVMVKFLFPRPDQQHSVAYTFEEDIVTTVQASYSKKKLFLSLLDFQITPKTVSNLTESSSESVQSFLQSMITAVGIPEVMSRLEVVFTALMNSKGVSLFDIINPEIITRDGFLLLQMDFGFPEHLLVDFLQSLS
The series is described as follows: In vitro CETP inhibitory assay (BODIPY-CE fluorescence assay, CETP RP Activity Assay Kit). The class given is biochemical. The settings on record: for IC50: CETP inhibition, eight-point titration, each concentration tested three times. As for the experimental part:
The IC50 was determined from a curve fit of the data with each concentration tested three times.

One may read the melting point as the temperature, or range, at which the solid turns liquid. As usually defined, the IC50 is the concentration needed to halve the response being measured.

`Fc1ccc(CN(Cc2ncc(-c3ccccc3)o2)c2cccc(Oc3ccccc3)c2)cc1` [Compound 17a, N-(4-Fluorobenzyl)-3-phenoxy-N-((5-phenyloxazol-2-yl)methyl)aniline] displayed a melting point of 81 to 82.4 °C. Moreover, the concentration for half-maximal inhibition (IC50) on recombinant CETP is 25.7 ± 0.41 µM.
For `COc1ccc(N(Cc2ccc(F)cc2)Cc2nc(-c3ccc(-c4ccnn4C)cc3)cs2)cc1OC` [Compound 39, N-(4-Fluorobenzyl)-3,4-dimethoxy-N-((4-(4-(1-methyl-1H-pyrazol-5-yl)phenyl)thiazol-2-yl)methyl)aniline] the same measures were 102.4 to 103.3 °C and 6.38 ± 0.09 µM.
For `COc1ccc(N(Cc2ccc(F)cc2)Cc2nc(-c3cccc([N+](=O)[O-])c3)cs2)cc1OC` [Compound 34, N-(4-Fluorobenzyl)-3,4-dimethoxy-N-((4-(3-nitrophenyl)thiazol-2-yl)methyl)aniline] the same measures were 120.5 to 121.6 °C and 1.38 ± 0.07 µM.
Consider `COc1ccc(N(Cc2ccc(F)cc2)Cc2nc(-c3ccccc3)cs2)cc1OC` [Compound 22, N-(4-Fluorobenzyl)-3,4-dimethoxy-N-((4-phenylthiazol-2-yl)methyl)aniline], for which the concentration for half-maximal inhibition (IC50) at recombinant CETP came out at 3.58 ± 0.03 µM.
The same measure, in the same setting: the figure for `COc1ccc(N(Cc2ccc(F)cc2)Cc2nc(-c3ccc4ccccc4c3)cs2)cc1OC` [Compound 41, N-(4-Fluorobenzyl)-3,4-dimethoxy-N-((4-(naphthalen-2-yl)thiazol-2-yl)methyl)aniline] is 3.51 ± 0.06 µM.
Turning to `COc1ccc(N(Cc2ccc(F)cc2)Cc2nc(-c3ccc(NC(=O)C(F)(F)F)cc3)cs2)cc1OC` [Compound 45, N-(4-(2-(((3,4-Dimethoxyphenyl)(4-fluorobenzyl)amino)methyl)thiazol-4-yl)phenyl)-2,2,2-trifluoroacetamide], the melting point was 143.6 to 145.8 °C. In addition, the concentration for half-maximal inhibition (IC50) on recombinant CETP amounted to 15.3 ± 0.17 µM.
The corresponding values for `COc1ccc(N(Cc2ccc(F)cc2)Cc2nc(-c3ccc(NC(C)=O)cc3)cs2)cc1OC` [Compound 46, N-(4-(2-(((3,4-Dimethoxyphenyl)(4-fluorobenzyl)amino)methyl)thiazol-4-yl)phenyl)acetamide] are 134.6 to 137 °C and over 50 µM.
For `COc1ccc(N(Cc2ccc(F)cc2)Cc2nc(-c3ccc(C#N)cc3)cs2)cc1OC` [Compound 33, 4-(2-(((3,4-Dimethoxyphenyl)(4-fluorobenzyl)amino)methyl)thiazol-4-yl)benzonitrile] the same measures were 105.4 to 106.6 °C and 1.5 ± 0.03 µM.
As for `COc1cccc(N(Cc2ccc(F)cc2)Cc2nc(-c3ccccc3)cs2)c1` [Compound 21, N-(4-Fluorobenzyl)-3-methoxy-N-((4-phenylthiazol-2-yl)methyl)aniline], the IC50 on recombinant CETP was found to be 13.96 ± 0.11 µM.
The molecule `COc1ccc(N(Cc2ccc(F)cc2)Cc2nc(-c3ccc(-c4c(C)noc4C)cc3)cs2)cc1OC` [Compound 38, N-((4-(4-(3,5-Dimethylisoxazol-4-yl)phenyl)thiazol-2-yl)methyl)-N-(4-fluorobenzyl)-3,4-dimethoxyaniline] registered a melting point of 69 to 69.8 °C. In addition, the 50% inhibitory concentration (IC50) on recombinant CETP is 7.57 ± 0.1 µM.
For `COC(=O)CNc1ccc(-c2csc(CN(Cc3ccc(F)cc3)c3ccc(OC)c(OC)c3)n2)cc1` [Compound 47, Methyl(4-(2-(((3,4-dimethoxyphenyl)(4-fluorobenzyl)amino)methyl)thiazol-4-yl)phenyl)glycinate] the same measures were 103.5 to 105.4 °C and 3.54 ± 0.03 µM.
As for `COc1ccc(N(Cc2ccc(F)cc2)Cc2nc(-c3ccccc3[N+](=O)[O-])cs2)cc1OC` [Compound 35, N-(4-Fluorobenzyl)-3,4-dimethoxy-N-((4-(2-nitrophenyl)thiazol-2-yl)methyl)aniline], the half-maximal inhibitory concentration (IC50) at recombinant CETP was 6.36 ± 0.12 µM.
`O=[N+]([O-])c1ccc(-c2csc(CN(Cc3ccc(F)cc3)c3cccc(-c4ccccc4)c3)n2)cc1` [Compound 26, N-(4-Fluorobenzyl)-N-((4-(4-nitrophenyl)thiazol-2-yl)methyl)-[1,1′-biphenyl]-3-amine]: the melting point lay in the range of 149.5 to 150.8 °C. Besides, the IC50 on recombinant CETP worked out at 8.98 ± 0.05 µM.
As to `O=[N+]([O-])c1ccc(-c2csc(CN(Cc3ccc(F)cc3)c3ccc(-c4ccccc4)cc3)n2)cc1` [Compound 25, N-(4-Fluorobenzyl)-N-((4-(4-nitrophenyl)thiazol-2-yl)methyl)-[1,1′-biphenyl]-4-amine], the melting point fell in the range of 164.5 to 166.2 °C. Also, on recombinant CETP, the IC50 is 9.55 ± 0.08 µM.
The corresponding values for `COc1ccc(N(Cc2ccc(F)cc2)Cc2nc(-c3ccc(-c4cnn(C)c4)cc3)cs2)cc1OC` [Compound 37, N-(4-Fluorobenzyl)-3,4-dimethoxy-N-((4-(4-(1-methyl-1H-pyrazol-4-yl)phenyl)thiazol-2-yl)methyl)aniline] are 126.1 to 130.3 °C and 4.02 ± 0.05 µM.
With `Fc1ccc(CN(Cc2nc(-c3ccccc3)cs2)c2cccc(Oc3ccccc3)c2)cc1` [Compound 17d, N-(4-Fluorobenzyl)-3-phenoxy-N-((4-phenylthiazol-2-yl)methyl)aniline], the IC50 on recombinant CETP was found to be 9.03 ± 0.21 µM.
In the case of `COc1ccc(N(Cc2ccc(F)cc2)Cc2nc(-c3ccc(-c4cccs4)cc3)cs2)cc1OC` [Compound 40, N-(4-Fluorobenzyl)-3,4-dimethoxy-N-((4-(4-(thiophen-2-yl)phenyl)thiazol-2-yl)methyl)aniline], the melting point lay within 115.8 to 119 °C. For the same molecule, the concentration for half-maximal inhibition (IC50) at recombinant CETP came to 6.03 ± 0.04 µM.
The corresponding values for `Fc1ccc(CN(Cc2ncc(-c3ccccc3)s2)c2cccc(Oc3ccccc3)c2)cc1` [Compound 17b, N-(4-Fluorobenzyl)-3-phenoxy-N-((5-phenylthiazol-2-yl)methyl)aniline] are 90.5 to 92.5 °C and 10.6 ± 0.32 µM.
Regarding `O=[N+]([O-])c1ccc(-c2csc(CN(Cc3ccc(F)cc3)c3ccccc3-c3ccccc3)n2)cc1` [Compound 27, N-(4-Fluorobenzyl)-N-((4-(4-nitrophenyl)thiazol-2-yl)methyl)-[1,1′-biphenyl]-2-amine], the IC50 on recombinant CETP was determined as 1.02 ± 0.01 µM.
As to `COc1ccc(N(Cc2ccc(F)cc2)Cc2nc(-c3ccc(C)cc3)cs2)cc1OC` [Compound 42, N-(4-Fluorobenzyl)-3,4-dimethoxy-N-((4-(p-tolyl)thiazol-2-yl)methyl)aniline], the melting point was in the range of 105.3 to 107 °C. Further, at recombinant CETP, the 50% inhibitory concentration (IC50) was 14 ± 0.21 µM.
For `Fc1ccc(CN(Cc2nc3ccccc3[nH]2)c2cccc(Oc3ccccc3)c2)cc1` [Compound 17f, N-((1H-Benzo[d]imidazol-2-yl)methyl)-N-(4-fluorobenzyl)-3-phenoxyaniline], the IC50 at recombinant CETP was 13.7 ± 0.63 µM.
`COc1ccc(-c2csc(CN(Cc3ccc(F)cc3)c3ccc(OC)c(OC)c3)n2)cc1` [Compound 43, N-(4-Fluorobenzyl)-3,4-dimethoxy-N-((4-(4-methoxyphenyl)thiazol-2-yl)methyl)aniline] displayed a melting point of 76.3 to 79 °C. On recombinant CETP, the IC50 was 11 ± 0.31 µM.
The corresponding values for `O=[N+]([O-])c1ccc(-c2csc(CN(Cc3ccc(F)cc3)c3cccc(C(F)(F)F)c3)n2)cc1` [Compound 24, N-(4-Fluorobenzyl)-N-((4-(4-nitrophenyl)thiazol-2-yl)methyl)-3-(trifluoromethyl)aniline] are 107 to 108.4 °C and 13.8 ± 0.14 µM.
For the molecule `Cc1cc(CN(Cc2ccc(F)cc2)c2cccc(Oc3ccccc3)c2)nn1-c1ccccc1` [Compound 17c, N-(4-Fluorobenzyl)-N-((5-methyl-1-phenyl-1H-pyrazol-3-yl)methyl)-3-phenoxyaniline], the IC50 on recombinant CETP worked out at 17.1 ± 0.44 µM.
As to `CCOC(=O)CCCOc1ccc(-c2csc(CN(Cc3ccc(F)cc3)c3ccc(OC)c(OC)c3)n2)cc1` [Compound 48, Ethyl-4-(4-(2-(((3,4-dimethoxyphenyl)(4-fluorobenzyl)amino)methyl)thiazol-4-yl)phenoxy)butanoate], the IC50 at recombinant CETP came to 8.4 ± 0.04 µM. Besides, the “decrease of activity on replacing the nitro group at the 4-position of ring B” value at recombinant CETP (compared with the 4-nitro compound (30)) is reported as about 10 fold.
Regarding `COc1ccc(N(Cc2ccc(F)cc2)Cc2nc(-c3ccc(F)cc3)cs2)cc1OC` [Compound 31, N-(4-Fluorobenzyl)-N-((4-(4-fluorophenyl)thiazol-2-yl)methyl)-3,4-dimethoxyaniline], the half-inhibitory concentration (IC50) at recombinant CETP is 2.46 ± 0.06 µM.
For the molecule `COc1ccc(N(Cc2ccc(F)cc2)Cc2nc(-c3ccc(Br)cc3)cs2)cc1OC` [Compound 36, N-((4-(4-Bromophenyl)thiazol-2-yl)methyl)-N-(4-fluorobenzyl)-3,4-dimethoxyaniline], the IC50 on recombinant CETP came to 8.96 ± 0.15 µM.
Still for that read-out and setting: the figure for `Fc1ccc(CN(Cc2nc3ccccc3o2)c2cccc(Oc3ccccc3)c2)cc1` [Compound 17g, N-(Benzo[d]oxazol-2-ylmethyl)-N-(4-fluorobenzyl)-3-phenoxyaniline] is 15.2 ± 0.52 µM.
On the same count and under the same terms, as for `O=[N+]([O-])c1ccc(-c2csc(CN(Cc3ccc(F)cc3)c3cccc(OC(F)(F)F)c3)n2)cc1` [Compound 23, N-(4-Fluorobenzyl)-N-((4-(4-nitrophenyl)thiazol-2-yl)methyl)-3-(trifluoromethoxy)aniline], the figure is 31.69 ± 0.25 µM; as for `Cn1nccc1-c1cccc(N(Cc2ccc(F)cc2)Cc2nc(-c3ccc([N+](=O)[O-])cc3)cs2)c1` [Compound 29, N-(4-Fluorobenzyl)-3-(1-methyl-1H-pyrazol-5-yl)-N-((4-(4-nitrophenyl)thiazol-2-yl)methyl)aniline], 24.56 ± 0.22 µM.
